Efficacy and logP data for 17 molecules are collected here from US9725414B2, “Fungicidal N-bicycloalkyl and N-tricycloalkyl pyrazole-4-(thio)carboxamide derivatives” (priority 2011, dated 2017).

By logP is commonly meant the decadic logarithm of the partition coefficient of the neutral form, usually between octanol and water.

Structures are written as SMILES. Read-outs that look alike come from different tables or passages of the source.

The subject of one data set is Pyrenophora teres. Briefly: Example F: in vivo preventive test on Pyrenophora teres (barley), acetone/tween/DMSO preparation. The settings on record: grading 14 days after contamination. As for the experimental part: In Vivo Preventive Test on Pyrenophora teres (Barley) […] Barley plants (“Plaisant” variety), sown in starter cups on a 50/50 peat soil pozzolana substrate and grown at 22° C., are treated at the 1 leaf stage (10 cm height) by spraying with the active ingredient prepared as described above. Plants, used as controls, are treated with the mixture of acetone/tween/DMSO/water not containing the active material. After 24 hours, the plants are contaminated by spraying the leaves with an aqueous suspension of Pyrenophora teres spores (12 000 spores per mL). The spores are collected from a 12-day-old culture. […] Grading (% of efficacy) is carried out 14 days after the contamination, in comparison with the control plants.

The subject of another data set is Alternaria brassicae. The data set can be described thus: Example D: in vivo preventive test on Alternaria brassicae (leaf spot on radish). The settings on record: grading 6 days after contamination. The method, then:
In Vivo Preventive Test on Alternaria brassicae (Leaf Spot on Radish) […] Radish plants (“Pernod Clair” variety), sown in starter cups on a 50/50 peat soil pozzolana substrate and grown at 17° C., are treated at the cotyledon stage by spraying with the active ingredient prepared as described above. Plants, used as controls, are treated with the mixture of acetone/tween/DMSO/water not containing the active material. After 24 hours, the plants are contaminated by spraying the cotyledons with an aqueous suspension of Alternaria brassicae spores (50 000 spores per mL). The spores are collected from a 15-day-old culture. The contaminated radish plants are incubated at 20° C. and at 100% relative humidity. Grading (% of efficacy) is carried out 6 days after the contamination, in comparison with the control plants.

The next data set relates to Sphaerotheca fuliginea. Briefly: Example B: in vivo preventive test on Sphaerotheca fuliginea (powdery mildew on cucurbits), gherkin plants. The settings on record: 500 ppm of active ingredient, grading 12 days after contamination. The method, then: In Vivo Preventive Test on Sphaerotheca fuliginea (Powdery Mildew on Cucurbits) […] Gherkin plants (“Vert petit de Paris” variety), sown in starter cups on a 50/50 peat soil-pozzolana substrate and grown at 24° C. are treated at the Z11 cotyledon stage by spraying with the active ingredient prepared as described above. Plants, used as controls, are treated with the mixture of acetone/tween/DMSO/water not containing the active material. After 24 hours, the plants are contaminated by spraying the cotyledons with an aqueous suspension of Sphaerotheca fuliginea spores (100 000 spores per mL). The spores are collected from infected plants.

A further data set deals with Botrytis cinerea. The data set can be described thus: Example P: in vivo preventive test on Botrytis cinerea (grey mould), gherkin plants. The settings on record: 500 ppm of active ingredient, grading 4 to 5 days after contamination. The method, then:
In Vivo Preventive Test on Botrytis cinerea (Grey Mould) […] Gherkin plants (“Vert petit de Paris” variety), sown in starter cups on a 50/50 peat soil pozzolana substrate and grown at 24° C. are treated at the Z11 cotyledon stage by spraying with the active ingredient prepared as described above. Plants, used as controls, are treated with the mixture of acetone/tween/DMSO/water not containing the active material. After 24 hours, the plants are contaminated by spraying the cotyledons with an aqueous suspension of cryopreserved Botrytis cinerea spores (50 000 spores per mL). The spores are suspended in a nutrient solution composed of 10 g/L of PDB, 50 g/L of D-Fructose, 2 g/L of NH4NO3 and 1 g/L of KH2PO4. The contaminated gherkin plants are incubated at 17° C. and at 90% relative humidity. Grading (% of efficacy) is carried out 4 to 5 days after the contamination, in comparison with the control plants.

For another data set, the system named is Septoria tritici. The data set can be described thus: Example I: in vivo preventive test on Septoria tritici (wheat), acetone/tween/DMSO preparation. The settings on record: 500 ppm of active ingredient, grading 24 days after contamination. As for the experimental part: In Vivo Preventive Test on Septoria tritici (Wheat) […] Wheat plants (“Scipion” variety), sown in starter cups on a 50/50 peat soil pozzolana substrate and grown at 22° C., are treated at the 1 leaf stage (10 cm height) by spraying with the active ingredient prepared as described above. Plants, used as controls, are treated with the mixture of acetone/tween/DMSO/water not containing the active material. After 24 hours, the plants are contaminated by spraying the leaves with an aqueous suspension of cryopreserved Septoria tritici spores (500 000 spores per mL). The contaminated wheat plants are incubated for 72 hours at 18° C. and at 100% relative humidity, and then for 21 days at 90% relative humidity. Grading (% of efficacy) is carried out 24 days after the contamination, in comparison with the control plants.

The nature of data set [1]: log P by HPLC on reversed-phase column (C 18), EEC Directive 79831 Annex V.A8. It counts as physicochemical. The method, then:
In table 1, the log P values were determined in accordance with EEC Directive 79831 Annex V.A8 by HPLC (High Performance Liquid Chromatography) on a reversed-phase column (C 18), using the method described below: Temperature: 40° C.; Mobile phases: 0.1% aqueous formic acid and acetonitrile; linear gradient from 10% acetonitrile to 90% acetonitrile. Calibration was carried out using unbranched alkan-2-ones (comprising 3 to 16 carbon atoms) with known log P values (determination of the log P values by the retention times using linear interpolation between two successive alkanones). lambda-max-values were determined using UV-spectra from 200 nm to 400 nm and the peak values of the chromatographic signals.

The next data set has as its system Puccinia recondita. Briefly: Example M: in vivo preventive test on Puccinia recondita (brown rust on wheat). The settings on record: 500 ppm of active ingredient, grading 12 days after contamination. As for the experimental part: In Vivo Preventive Test on Puccinia recondita (Brown Rust on Wheat) […] Wheat plants (“Scipion” variety), sown in starter cups on a 50/50 peat soil pozzolana substrate and grown at 22° C., are treated at the 1 leaf stage (10 cm height) by spraying with the active ingredient prepared as described above. Plants, used as controls, are treated with the mixture of acetone/tween/DMSO/water not containing the active material. After 24 hours, the plants are contaminated by spraying the leaves with an aqueous suspension of Puccinia recondite spores (100 000 spores per mL). The spores are collected from an infected plant and are suspended in water containing 2.5 mL/L of Tween 80 at 10%. […] Grading (% of efficacy) is carried out 12 days after the contamination, in comparison with the control plants.

In another data set the test system is Uromyces appendiculatus. The data set can be described thus: Example Q: in vivo preventive test on Uromyces appendiculatus (bean rust). The settings on record: Uromyces appendiculatus on bean plants, 500 ppm of active ingredient, grading 11 days after contamination. As for the experimental part: In Vivo Preventive Test on Uromyces appendiculatus (Bean Rust) […] Bean plants (“Saxa” variety), sown in starter cups on a 50/50 peat soil pozzolana substrate and grown at 24° C., are treated at the 2 leaf stage (9 cm height) by spraying with the active ingredient prepared as described above. Plants, used as controls, are treated with the mixture of acetone/tween/DMSO/water not containing the active material. After 24 hours, the plants are contaminated by spraying the leaves with an aqueous suspension of Uromyces appendiculatus spores (150 000 spores per mL). The spores are collected from infected plants and are suspended in water containing 2.5 mL/L of Tween 80 at 10%. […] Grading (% of efficacy) is carried out 11 days after the contamination, in comparison with the control plants.

The mark [2] stands for this setting: Pyrenophora teres on barley, 100 ppm of active ingredient.
The mark [3] stands for this setting: 500 ppm of active ingredient, barley.
[4] abbreviates: HPLC reversed-phase C 18, 40° C., 0.1% aqueous formic acid and acetonitrile gradient, several values = mixture of two or more isomers.

Take `Cn1nc(C(F)F)c(C(=O)N(CC2CCCC3CCCC32)C2CC2)c1F` (mixture of isomers) [Example 60]: the Efficacy with Pyrenophora teres (setting [2]) was 98%; with Alternaria brassicae (100 ppm of active ingredient) it was 100%.
The matching figures for `Cn1cc(C(=O)N(CC2CCCC3CCCC32)C2CC2)c(C(F)F)n1` (mixture of isomers) [Example 61]: 100% and 92%.
As for `CC(C1CC2C=CC1C2)N(C(=O)c1c(C(F)F)nn(C)c1F)C1CC1` (mixture of isomers) [Example 101], the Efficacy in the data set on Sphaerotheca fuliginea is reported as 100%; in the data set with Pyrenophora teres (setting [3]) it was 100%; in the data set on Botrytis cinerea it was 98%; in the data set on Alternaria brassicae (500 ppm of active ingredient), 92%; in the data set on Septoria tritici, 100%.
For `Cn1nc(C(F)F)c(C(=O)N(C2CC2)C2CCC3CCCC32)c1F` (stereo not drawn) [Example 4], the Efficacy came to 100% in the data set on Pyrenophora teres (setting [3]), 80% in the data set with Botrytis cinerea, 100% in the data set with Alternaria brassicae (500 ppm of active ingredient) and 78% in the data set with Puccinia recondita. Besides, the logP in data set [1] (setting [4]) stood at 3.55.
For the molecule `Cn1nc(C(F)F)c(C(=O)N(C2CC2)C2CCC3CCCC32)c1F` (stereo not drawn) [Example 5], the Efficacy in the data set with Sphaerotheca fuliginea was 98%; in the data set with Pyrenophora teres (setting [3]), 97%; with Uromyces appendiculatus it was 100%; in the data set on Alternaria brassicae (500 ppm of active ingredient), 100%; with Septoria tritici, 100%; with Puccinia recondita, 100%. Further, in data set [1] (setting [4]), the logP is on record as 3.65.
`Cn1cc(C(=O)N(C2CC2)C2CCC3CCCC32)c(C(F)F)n1` (stereo not drawn) [Example 7]: the Efficacy in the data set with Sphaerotheca fuliginea is 100%; in the data set with Pyrenophora teres (setting [3]), 100%; in the data set with Uromyces appendiculatus, 94%; with Alternaria brassicae (500 ppm of active ingredient) it was 80%; with Septoria tritici it was 97%; with Puccinia recondita, 98%. In addition, the logP in data set [1] (setting [4]) came to 3.19.
As for `CN(C(=O)c1c(C(F)F)nn(C)c1F)C1CCC2CCCCC21` (stereo not drawn) [Example 8], the Efficacy in the data set on Pyrenophora teres (setting [2]) amounted to 98%; in the data set on Alternaria brassicae (100 ppm of active ingredient), 100%. This molecule also returned a logP in data set [1] of 3.35.
The matching figures for `CN(C(=O)c1cn(C)nc1C(F)F)C1CCC2CCCCC21` (stereo not drawn) [Example 9]: 75%, 100% and 2.88.
For the molecule `CON(C(=O)c1c(C(F)F)nn(C)c1F)C1CCC2CCCCC21` (stereo not drawn) [Example 10], the Efficacy came out at 100% in the data set with Sphaerotheca fuliginea; 93% with Pyrenophora teres (setting [3]); 100% in the data set with Uromyces appendiculatus; 100% with Alternaria brassicae (500 ppm of active ingredient); 93% with Septoria tritici; 100% in the data set on Puccinia recondita. Besides, in data set [1] (setting [4]), the logP is listed as 3.72.
For `Cn1nc(C(F)F)c(C(=O)N(C2CC2)C2CCCC3CCCCC32)c1Cl` (stereo not drawn) [Example 32], the Efficacy was 100% in the data set on Sphaerotheca fuliginea; 97% in the data set with Pyrenophora teres (setting [3]); 89% in the data set with Uromyces appendiculatus; 100% in the data set on Alternaria brassicae (500 ppm of active ingredient); 80% with Septoria tritici; 98% in the data set with Puccinia recondita. Moreover, the logP in data set [1] (setting [4]) is on record as 4.68.
As for `CC1C(NC(=O)c2c(C(F)F)nn(C)c2F)CC2CC1C2(C)C` (stereo not drawn) [Example 49], the results for the Efficacy with Pyrenophora teres (setting [3]), with Botrytis cinerea and in the data set on Alternaria brassicae (500 ppm of active ingredient) were 88%, 98% and 96%, respectively. Further, the logP in data set [1] (setting [4]) is 3.61.
For the molecule `CC1C(NC(=O)c2c(C(F)F)nn(C)c2F)CC2CC1C2(C)C` (stereo not drawn) [Example 50], the Efficacy with Sphaerotheca fuliginea was 90%; in the data set with Pyrenophora teres (setting [3]) it was 88%; with Botrytis cinerea, 99%; in the data set with Alternaria brassicae (500 ppm of active ingredient), 80%; in the data set on Septoria tritici, 97%. In addition, the logP in data set [1] (setting [4]) is 3.61.
In the case of `Cn1nc(C(F)F)c(C(=O)N(CC2CCCC3CCCCC32)C2CC2)c1Cl` (stereo not drawn) [Example 67], the Efficacy in the data set with Sphaerotheca fuliginea is 100%; with Pyrenophora teres (setting [3]), 98%; with Uromyces appendiculatus, 87%; in the data set on Alternaria brassicae (500 ppm of active ingredient), 97%; in the data set on Septoria tritici it was 94%; in the data set with Puccinia recondita, 97%. Moreover, the logP in data set [1] (setting [4]) is on record as 5.08.
On to `Cn1nc(C(F)F)c(C(=O)NCC2C3CC4CC(C3)CC2C4)c1F` (stereo not drawn) [Example 90], for which the Efficacy is reported as 81% in the data set with Pyrenophora teres (setting [3]), 100% with Botrytis cinerea, 90% in the data set on Alternaria brassicae (500 ppm of active ingredient) and 92% with Septoria tritici. In addition, the logP in data set [1] (setting [4]) worked out at 3.68.
For `Cn1nc(C(F)F)c(C(=O)NCC2C3CC4CC(C3)CC2C4)c1Cl` (stereo not drawn) [Example 91], the Efficacy was determined as 75% with Pyrenophora teres (setting [3]), 99% with Botrytis cinerea and 96% in the data set on Alternaria brassicae (500 ppm of active ingredient). In addition, the logP in data set [1] (setting [4]) is on record as 3.90.
With `Cn1cc(C(=O)NCC2C3CC4CC(C3)CC2C4)c(C(F)F)n1` (stereo not drawn) [Example 92], the Efficacy turned out to be 100% in the data set on Botrytis cinerea, 96% with Alternaria brassicae (500 ppm of active ingredient) and 83% in the data set with Septoria tritici. Moreover, the lipophilicity (logP) in data set [1] (setting [4]) is 3.27.
For `CON(C(=O)c1cn(C)nc1C(F)F)C(C)C1CC2CCC1C2` (stereo not drawn) [Example 100], the Efficacy in the data set with Sphaerotheca fuliginea stood at 100%; in the data set on Pyrenophora teres (setting [3]), 100%; in the data set on Uromyces appendiculatus it was 100%; in the data set with Botrytis cinerea, 100%; in the data set on Puccinia recondita it was 90%. Besides, the lipophilicity (logP) in data set [1] (setting [4]) came out at 3.42.
